How the values were obtained:
[1] = tested on: GD2 CAR T cells; test: Large-scale manufacturing of GD2.bbz CAR T cells in G-Rex system in regular or inosine media; assay type: cell-based
Description: Enriched CD4/CD8+ T cells from a healthy donor were cultured in regular or inosine-containing media in the G-Rex system. Cells were analyzed at days 7 post-activation. A: Scheme of the large scale experiment. B: Expansion of GD2 CAR T cells manufactured in control vs inosine-containing media. N=1 out of two donors is shown. C: Number of CAR+ T cells at the day 7 post activation. D: Viability of T cells. E: Percentage of CAR+ and CD4 vs CD8 T cells. Data from one representative donor is shown. N=2. F: Relative frequency of terminally differentiated effector (EMRA; CD45RA+ CCR7-), naïve (CD45RA+ CCR7+), central memory (CM; CD45RA-CCR7+), and effector memory (EM; CD45RA-CCR7-) cells in CD8+ control or inosine-grown GD2 CAR T cells. G: IL-2 and IFNγ secretion by CAR T cells stimulated with 143b, mg63.3 or Nalm6-GD2 tumor lines. […] P values were determined by unpaired two-tailed t-tests.
FIG. 13A-13H: Clinical scale manufacturing of clinical grade GD2-CAR T cells using media containing inosine, improves CAR product quality. A: Schematic of large-scale manufacturing of GD2.bbz-CAR+ T cells in a semi-closed G-Rex system in glucose-or inosine-containing media. 7 days post-activation, transduction efficiency, percentage of viable cells, and CD4/CD8 ratio of GD2+ cells were assessed by flow cytometry. […] B: Expansion of total viable T cells manufactured in control (black) vs. inosine (green)-containing media and (Right) corresponding number of CAR+ cells at day 7. […] C: IL-2 and IFNg secretion by CAR T cells stimulated for 24 hrs with 143b, mg63.3 or Nalm6-GD2 tumor lines. […] D: NSG mice were injected with 1×10^6 Nalm6 leukemia cells. On day 3 post-tumor injection, 2×10^6 of mock or GD2.bbz-CAR T cells manufactured in the presence of inosine or in regular media were transferred intravenously. Tumor growth was monitored by bioluminescent imaging. […] P values determined at day 43 by using Mann-Whitney test. […] E: Concentration of CD45+ T cells detected in blood of mice at D33 post-CAR T cell injection. […] F: Schematic of the experimental design. G: GD2.bbz-CAR T cells grown in media containing indicated inosine concentration between day 3 and day 10 post-activation and stimulated with 143b tumor. IL-2 and IFNg secretion after 24 hrs of co-culture was measured. Data are mean±s.d. of duplicate or triplicate wells. Representative of n=3 donors shown. […] Reprograming is due to an increase in glutaminolysis and polyamine synthesis and downregulation of CD73, FOXP3, A2aR and c-AMP response transcription factors.
In this example, the in vivo anti-tumor potency of CAR T cells manufactured in the presence or absence of inosine was assessed. In this particular example, the feasibility of manufacturing GD2 CAR T cells in inosine media in the clinical setting was assessed. 2.5×10^8 enriched CD4+ and CD8+ T cells from a healthy donor were activated with anti-CD3/CD28-coated beads and transduced using clinical grade GD2.bbz vector at MOI=10 (FIG. 6A). From day 3, T cells were continued to be cultured in regular-or inosine containing media in a semi-closed culture system using G-Rex platform. […] There was no difference in product viability (FIG. 6D), nor transduction efficiency nor CD4 vs CD8 ratio (FIG. 6E).
A total of 2.5×10^8 enriched CD4+ and CD8+ T cells from a healthy donor were activated with anti-CD3/CD28-coated beads and transduced using clinical grade GD2-CAR vector at an MOI of 10 (FIG. 13A). On day 3, T cells were maintained in standard RPMI media containing glucose or switched to inosine-containing RPMI without glucose in a semi-closed G-Rex culture platform.

[2] = tested on: HA-CAR T cells
Description: 9D: Levels of expression of indicated purinergic pathway gene transcripts from bulk RNA samples. Data are mean+/−s.e.m. from n=3 donors. P values determined by paired two-tailed t-tests. *, P<0.05; **, P<0.01; ***, P<0.001; **** P<0.0001. […] Histograms of representative donor (Left) and pooled data from n=8 donors shown (Right). P values determined by paired two-tailed t-tests. *, P<0.05; **, P<0.01; ***, P<0.001; ****, P<0.0001. 9F: UMAP plots of day 14 CD8+ (top) and CD4+ (bottom) HA-or HA-INO-CAR T cells analyzed using CyTOF. 9,000 or maximum of CD4+ CAR T cells from each condition from n=4 donors were organized by their combined expression of 5 exhaustion markers. Graphs represent median expression of indicated markers. P values determined by paired two-tailed t-tests. *, P<0.05; **, P<0.01; ***, P<0.001; ****, P<0.0001. 9G: Histograms showing GD2 antigen expressed by Nalm6-GD2 and 143b tumor lines with corresponding number of molecules per cell. 9H: Co-cultures of HA, HA-ADA-O/E-or HA grown in INO stimulated with Nalm6-GD2 (1:8 E: T) at day 14 post-activation. Tumor GFP fluorescence intensity was normalized to the first time point (duplicate or triplicate wells). Representative donor of n=2 donor shown. P values determined by two-way ANOVA with Dunnett's multiple comparisons test. *, P<0.05; **, P<0.01; ***, P<0.001; ****, P<0.0001. […] Error bars represent mean+SD of triplicate wells from one representative donor of n=1-2 donors. P values determined by unpaired two-tailed t-tests. *, P<0.05; **, P<0.01; ***, P<0.001; ****, P<0.0001. 9J: IL-2 release after 24h of CD19.4-1BBz-CAR T cells stimulated with Nalm6 tumor line alone or in co-culture with HA-or HA-INO-CAR T cells at 1:1:1 ratio. Data are mean+SD from triplicate wells. N=1 donor. *, P<0.05; **, P<0.01; *** P<0.001; ****, P<0.0001. […] Data polled from n=5 donors from independent experiments. P values determined by paired two-tailed t-tests *, P<0.05; **, P<0.01; ***, P<0.001; ****, P<0.0001. […] Tumor GFP fluorescence intensity was normalized to the first time point (duplicate or triplicate wells). Representative donor of n=3 donor shown. P values determined by two-way ANOVA with Dunnett's multiple comparisons test. *, P<0.05; **, P<0.01; ***, P<0.001; ****, P<0.0001. 9N: Co-cultures of CD19, or CD19-CAR T cells grown in INO media starting from indicated days post-activation and Nalm6-GD2 (1:10 E: T) starting at day 15 post-activation. Tumor GFP fluorescence intensity was normalized to the first time point (duplicate or triplicate wells). Representative donor of n=2 donor shown. P values determined by two-way ANOVA with Dunnett's multiple comparisons test. *, P<0.05; **, P<0.01; ***, P<0.001; ****, P<0.0001. […] Data are mean±s.e.m. of n=3-5 donors. P values determined by paired two-tailed t-tests. *, P<0.05; **, P<0.01; ***, P<0.001; ****, P<0.0001.

[3] = tested on: Nalm6 leukemia cells; test: Nalm6 leukemia in NSG mice treated with CD19.28 CAR T cells (in vivo stress test); conditions: 0.2×10^6 CD19.28 CAR T cells IV day 3, manufactured in inosine vs regular media
Description: A: NSG mice were injected IV with 1×10^6 Nalm6 leukemia cells at day 0, and then 0.2×10^6 CD19.28 CAR T cells, generated in regular or inosine-supplemented media were given IV on day 3. Tumor progression was monitored using bioluminescent imaging. Scales are normalized for all time points. Data are mean+s.e.m. of n=5 mice per group. […] B: NSG mice were injected IV with 1×10^6 Nalm6-GD2+ leukemia cells at day 0, and then 2×10^6 HA CAR T cells, generated in regular or inosine-containing media were given IV on day 3. Tumor progression was monitored using bioluminescent imaging. Scales are normalized for all time points. Data are mean+s.e.m. of n=5 mice per group. […] C: Overall survival. N=5 mice per group. Survival curves were compared using the log-rank Mantel-Cox test. D: NSG mice were injected intramuscular with 1×10^6 143b tumor cells. 4 days later the mice were injected with 1×10^7 Her2, Her2 grown in INO+ media or mock T cells IV. Tumor growth was monitored by caliper measurements. […] N=3-5 mice per group. Survival curves were compared using the log-rank Mantel-Cox test.
In this example, the in vivo anti-tumor potency of CAR T cells manufactured in the presence or absence of inosine was assessed. […] Three days post tumor injection, mice were evaluated and normalized for engraftment using bioluminescent imaging. […]

**Q.** `O=c1[nH]cnc2c1ncn2[C@@H]1O[C@H](CO)[C@@H](O)[C@H]1O` [inosine, Inosine] was tested. Which “total cells after expansion” value ([1]; G-Rex, inosine media from day 3, day 7, one donor (FIG. 6B)) did it give?
**A.** 384.3×10^6 total cells

**Q.** And the total cell yield ([1]; day 7, INO RPMI without glucose from day 3, n=2 donors, s.e.m.)?
**A.** 238.5×10^6+145.8

**Q.** What about the “CD4 vs CD8 ratio” value ([1]; day 7, inosine vs control) of the same molecule?
**A.** no difference

**Q.** What about the “frequency of naive and central memory GD2 CAR T cells” value ([1]; day 7, inosine vs control) of the same molecule?
**A.** higher frequency

**Q.** And the product viability ([1]; day 7, inosine vs control)?
**A.** no difference

**Q.** What about the transduction efficiency ([1]; day 7, inosine vs control) of the same molecule?
**A.** no difference

**Q.** What about the “expression of ornithine decarboxylase (ODC), spermidine synthase and elF5A” value ([2]; HA vs HA-INO) of the same molecule?
**A.** increased expression

**Q.** And the “genes associated with TCR signaling” value ([2]; HA vs HA-INO)?
**A.** diminished expression

**Q.** And the “genes associated with glutaminolysis and polyamine synthesis” value ([2]; HA vs HA-INO, day 14)?
**A.** increased expression

**Q.** What about the “genes associated with glycolysis and glucose driven metabolism (PFKP, ALDOA, GAPDH, PGK, ENO1)” value ([2]; HA vs HA-INO, day 14) of the same molecule?
**A.** downregulation

**Q.** What about the “variance in principal component analysis attributed to INO exposure” value ([2]; bulk RNA-seq PCA) of the same molecule?
**A.** 41.3%

**Q.** What about the “tumor growth (bioluminescent imaging)” value [3] of the same molecule?
**A.** significantly delayed tumor growth
